The source of these data is US9546164B2 (GENENTECH, INC., priority 2013, dated 2017).

Each structure is given as a SMILES string. Structures can show the parent of a compound that is named as a salt.

Sequence of hNav1.7 (Q15858 other isoform, or with tags, fused parts or gaps): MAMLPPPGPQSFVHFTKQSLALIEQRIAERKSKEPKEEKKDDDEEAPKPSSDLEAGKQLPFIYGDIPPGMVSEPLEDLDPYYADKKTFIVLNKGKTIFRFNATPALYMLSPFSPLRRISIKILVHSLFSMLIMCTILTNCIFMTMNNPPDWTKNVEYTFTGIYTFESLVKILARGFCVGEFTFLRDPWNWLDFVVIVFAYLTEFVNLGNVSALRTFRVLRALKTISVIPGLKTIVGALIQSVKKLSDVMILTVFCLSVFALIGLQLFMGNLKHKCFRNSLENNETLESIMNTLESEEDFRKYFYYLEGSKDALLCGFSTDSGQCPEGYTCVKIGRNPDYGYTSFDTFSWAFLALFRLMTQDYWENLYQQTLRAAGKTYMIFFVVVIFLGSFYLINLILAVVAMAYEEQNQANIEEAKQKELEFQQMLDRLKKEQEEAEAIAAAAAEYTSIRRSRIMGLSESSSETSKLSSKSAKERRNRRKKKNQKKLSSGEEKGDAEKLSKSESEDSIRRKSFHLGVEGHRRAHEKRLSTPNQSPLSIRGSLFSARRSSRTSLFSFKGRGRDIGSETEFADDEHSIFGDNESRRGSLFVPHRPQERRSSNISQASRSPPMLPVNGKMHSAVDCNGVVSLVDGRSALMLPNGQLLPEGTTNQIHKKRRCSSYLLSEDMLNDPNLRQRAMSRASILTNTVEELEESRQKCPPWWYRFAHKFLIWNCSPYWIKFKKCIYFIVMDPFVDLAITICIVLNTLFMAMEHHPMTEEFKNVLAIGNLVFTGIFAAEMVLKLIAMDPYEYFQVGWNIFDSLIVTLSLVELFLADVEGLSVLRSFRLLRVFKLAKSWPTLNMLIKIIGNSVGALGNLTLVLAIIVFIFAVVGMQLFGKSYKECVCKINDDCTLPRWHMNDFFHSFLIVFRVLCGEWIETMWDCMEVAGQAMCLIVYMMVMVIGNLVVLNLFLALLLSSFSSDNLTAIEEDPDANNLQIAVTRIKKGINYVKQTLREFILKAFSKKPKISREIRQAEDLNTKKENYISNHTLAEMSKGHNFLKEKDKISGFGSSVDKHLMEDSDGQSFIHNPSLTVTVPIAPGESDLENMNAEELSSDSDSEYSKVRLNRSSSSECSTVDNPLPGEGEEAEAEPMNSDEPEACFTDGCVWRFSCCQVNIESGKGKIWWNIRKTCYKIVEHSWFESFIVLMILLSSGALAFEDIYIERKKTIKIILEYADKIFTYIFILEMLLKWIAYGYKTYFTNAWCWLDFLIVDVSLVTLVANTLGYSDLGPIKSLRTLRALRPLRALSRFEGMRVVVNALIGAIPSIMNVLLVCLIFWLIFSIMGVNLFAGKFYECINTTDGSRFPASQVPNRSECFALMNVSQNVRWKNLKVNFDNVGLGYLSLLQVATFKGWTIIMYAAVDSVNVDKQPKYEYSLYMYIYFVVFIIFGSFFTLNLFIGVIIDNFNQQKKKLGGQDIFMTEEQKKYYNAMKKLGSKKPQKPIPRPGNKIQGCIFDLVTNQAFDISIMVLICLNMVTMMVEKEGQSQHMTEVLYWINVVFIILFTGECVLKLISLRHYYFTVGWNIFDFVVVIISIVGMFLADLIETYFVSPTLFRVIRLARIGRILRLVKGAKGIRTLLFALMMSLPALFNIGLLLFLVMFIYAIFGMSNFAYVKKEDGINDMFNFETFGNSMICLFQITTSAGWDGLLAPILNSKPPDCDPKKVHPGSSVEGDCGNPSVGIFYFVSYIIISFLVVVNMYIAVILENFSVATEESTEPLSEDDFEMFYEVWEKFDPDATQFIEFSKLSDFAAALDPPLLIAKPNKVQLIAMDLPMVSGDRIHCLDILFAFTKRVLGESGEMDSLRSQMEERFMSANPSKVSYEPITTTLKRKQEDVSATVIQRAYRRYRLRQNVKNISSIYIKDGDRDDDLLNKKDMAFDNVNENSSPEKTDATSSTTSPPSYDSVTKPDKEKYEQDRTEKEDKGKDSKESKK
Sequence of hNav1.7 (Q07699 19-218 partner): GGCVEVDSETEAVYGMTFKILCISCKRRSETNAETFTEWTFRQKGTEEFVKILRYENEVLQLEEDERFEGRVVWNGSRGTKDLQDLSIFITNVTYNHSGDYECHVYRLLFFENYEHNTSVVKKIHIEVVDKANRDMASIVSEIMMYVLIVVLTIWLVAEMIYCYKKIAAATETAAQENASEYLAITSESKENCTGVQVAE

One assay addresses hNav1.7 (Homo sapiens (Human), UniProt Q15858). Briefly: Tritiated sulfonamide competitive binding to membranes from cells expressing hNav1.7 and the β1 subunit.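 Also: Filter-bound radioactivity counted by liquid scintillation, nonspecific binding defined with excess unlabelled ligand, IC50 fitted to percent inhibition of specific binding.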
Settings: not given
`CS(=O)(=O)NC(=O)c1cc(C2CC2)c(CN2CCC([S+]([O-])c3cc(Cl)cc(Cl)c3)CC2)cc1F` (centres unmarked) [Example 534, 5-cyclopropyl-4-((4-((3,5-dichlorophenyl)sulfinyl)piperidin-1-yl)methyl)-2-fluoro-N-(methylsulfonyl)benzamide, trifluoroacetic acid salt] registered an IC50 of 879 nM. Same read-out and setting: under `O=C(NS(=O)(=O)C1CC1)c1cc(C2CC2)c(CN2CCC(CF)(c3ccc(F)cc3)CC2)cc1F` [Example 514, 5-cyclopropyl-N-(cyclopropylsulfonyl)-2-fluoro-4-((4-(fluoromethyl)-4-(4-fluorophenyl)piperidin-1-yl)methyl)benzamide, trifluoroacetic acid salt] stands 24.4 nM; under `CC1(C)CN(Cc2cc(F)c(C(=O)NS(=O)(=O)C3CC3)cc2C2CC2)CCC1Oc1cc(C(F)(F)F)c(Cl)cn1` (centres unmarked) [Example 562, 4-((4-((5-chloro-4-(trifluoromethyl)pyridin-2-yl)oxy)-3,3-dimethylpiperidin-1-yl)methyl)-5-cyclopropyl-N-(cyclopropylsulfonyl)-2-fluorobenzamide, trifluoroacetic acid salt], 3.1 nM; under `CC(C)(c1cccc(Cl)c1)N1CCC[C@@H](Oc2cc(F)c(C(=O)NS(C)(=O)=O)cc2C2CC2)C1` [Example 529, (R)-4-((1-(2-(3-chlorophenyl)propan-2-yl)piperidin-3-yl)oxy)-5-cyclopropyl-2-fluoro-N-(methylsulfonyl)benzamide, trifluoroacetic acid salt], 2.4 nM. `CS(=O)(=O)NC(=O)c1cc(C2CC2)c(O[C@@H]2CCCN(Cc3ccc(F)cc3)C2)cc1F` [Example 20, (R)-5-cyclopropyl-2-fluoro-4-((1-(4-fluorobenzyl)piperidin-3-yl)oxy)-N-(methlysulfonyl)benzamide]: the IC50 came out at 30.9 nM.

Consider `O=C(NS(=O)(=O)C1CC1)c1cc(C2CC2)c(CN2CCC(Oc3ccc(Cl)c(Cl)c3)CC2)cc1F` [Example 510, 5-cyclopropyl-N-(cyclopropylsulfonyl)-4-((4-(3,4-dichlorophenoxy)piperidin-1-yl)methyl)-2-fluorobenzamide, trifluoroacetic acid salt], for which the IC50 stood at 9.1 nM.

For `O=C(NS(=O)(=O)C1CC1)c1cc(C2CC2)c(O[C@@H]2CCCN(Cc3ccccc3Cl)C2)cc1F` [Example 23, (R)-4-((1-(2-chlorobenzyl)piperidin-3-yl)oxy)-5-cyclopropyl-N-(cyclopropylsulfonyl)-2-fluorobenzamide], the IC50 came out at 1.7 nM. The same measure, in the same setting: under `Cc1ccc(CN2CCC[C@@H](Oc3cc(F)c(C(=O)NS(=O)(=O)C4CC4)cc3C3CC3)C2)cc1` [Example 32, (R)-5-cyclopropyl-N-(cyclopropylsulfonyl)-2-fluoro-4-((1-(4-methylbenzyl)piperidin-3-yl)oxy)benzamide] stands 5.4 nM.

Staying with this assay, now noted: read-out: Ligand Binding Assay; 100 pM [3H]compound, membranes with hNav1.7 and β1 subunit, 18 h, room temperature.
With `C[C@H](c1ccc(F)cc1Cl)N1CCC[C@@H](Oc2cc(F)c(C(=O)NS(C)(=O)=O)cc2C2CC2)C1` [Example 296, 4-(((R)-1-((R)-1-(2-chloro-4-fluorophenyl)ethyl)piperidin-3-yl)oxy)-5-cyclopropyl-2-fluoro-N-(methylsulfonyl)benzamide], the IC50 turned out to be 8.1 nM. The same measure, in the same setting: under `CC1(COc2cc(F)c(C(=O)NS(C)(=O)=O)cc2C2CC2)CCN(Cc2cc(Cl)ccc2C(F)(F)F)CC1` [Example 122] stands 2.4 nM; under `CS(=O)(=O)NC(=O)c1cc(C2CC2)c(OCC2CCN(Cc3ccccc3)CC2)cc1F` [Example 87, 4-((1-Benzylpiperidin-4-yl)methoxy)-5-cyclopropyl-2-fluoro-N-(methylsulfonyl)benzamide], 278 nM. Still for that read-out and setting: next, `CS(=O)(=O)NC(=O)c1cc(C2CC2)c(OC[C@@H]2CCCN(Cc3cc(Cl)cc(Cl)c3)C2)cc1F` [Example 334, (R)-5-cyclopropyl-4-((1-(3,5-dichlorobenzyl)piperidin-3-yl)methoxy)-2-fluoro-N-(methylsulfonyl)benzamide]: 7.1 nM. On the same count and under the same terms, under `Cc1ccc(CN2CCC[C@@H](Oc3cc(F)c(C(=O)NS(C)(=O)=O)cc3C3CC3)C2)cc1Cl` [Example 435, (R)-4-((1-(3-Chloro-4-methylbenzyl)piperidin-3-yl)oxy)-5-cyclopropyl-2-fluoro-N-(methylsulfonyl)benzamide, trifluoroacetic acid salt] stands 5.4 nM; under `CC(c1cc(F)cc(F)c1)N1CCC(COc2cc(F)c(C(=O)NS(C)(=O)=O)cc2C2CC2)CC1` (centres unmarked) [Example 89, 5-Cyclopropyl-4-((1-(1-(3,5-difluorophenyl)ethyl)piperidin-4-yl)methoxy)-2-fluoro-N-(methylsulfonyl)benzamide], 22.3 nM; under `CS(=O)(=O)NC(=O)c1cc(C2CC2)c(OCC2CN([C@H](c3ccccc3)c3ccc(OC(F)(F)F)cc3)C2)cc1F` [Example 113, (R)-5-Cyclopropyl-2-fluoro-N-(methylsulfonyl)-4-((1-(phenyl(4-(trifluoromethoxy)phenyl)methyl)azetidin-3-yl)methoxy)benzamide], 11.1 nM. With `C[C@@H](c1cc(Cl)cc(C(F)(F)F)c1)N1CCC(COc2cc(F)c(C(=O)NS(C)(=O)=O)cc2C2CC2)CC1` (single isomer, unassigned) [Example 277], the IC50 came to 4 nM. The same measure, in the same setting: next, `CC1(COc2cc(F)c(C(=O)NS(C)(=O)=O)cc2C2CC2)CN(C(c2ccccc2)c2cc(Cl)cc(Cl)c2)C1` (centres unmarked) [Example 420, 5-cyclopropyl-4-((1-((3,5-dichlorophenyl)(phenyl)methyl)-3-methylazetidin-3-yl)methoxy)-2-fluoro-N-(methylsulfonyl)benzamide, trifluoroacetic acid salt]: 2.4 nM.

Regarding `O=C(NS(=O)(=O)C1CC1)c1cc(C2CC2)c(OCC2CCN(C(=O)c3ccccc3)CC2)cc1F` [Example 198, 4-((1-Benzoylpiperidin-4-yl)methoxy)-5-cyclopropyl-N-(cyclopropylsulfonyl)-2-fluorobenzamide], the IC50 came out at 550 nM. Still for that read-out and setting: under `C[C@H](c1cc(Cl)cc(Cl)c1)N1CCC(COc2cc(F)c(C(=O)NS(C)(=O)=O)cc2C2CC2)CC1` [Example 99, (R)-5-Cyclopropyl-4-((1-(1-(3,5-dichlorophenyl)ethyl)piperidin-4-yl)methoxy)-2-fluoro-N-(methylsulfonyl)-benzamide] stands 3.89 nM; under `CC1(COc2cc(F)c(C(=O)NS(C)(=O)=O)cc2C2CC2)CN(Cc2cc(Cl)cc(Cl)c2)C1` [Example 77], 6.4 nM; under `CS(=O)(=O)NC(=O)c1cc(C2CC2)c(OC[C@H]2CCCN(Cc3cc(Cl)cc(Cl)c3)C2)cc1F` [Example 336, (S)-5-cyclopropyl-4-((1-(3,5-dichlorobenzyl)piperidin-3-yl)methoxy)-2-fluoro-N-(methylsulfonyl)benzamide], 4.9 nM. In the case of `C[C@H](c1ccc(F)cc1)N1CCC[C@@H](Oc2cc(F)c(C(=O)NS(C)(=O)=O)cc2C2CC2)C1` [Example 316, 5-cyclopropyl-2-fluoro-4-(((R)-1-((R)-1-(4-fluorophenyl)ethyl)piperidin-3-yl)oxy)-N-(methylsulfonyl)benzamide], the IC50 came to 37.2 nM. On the same count and under the same terms, under `CCOc1ccc(CN2CCC[C@@H](Oc3cc(F)c(C(=O)NS(C)(=O)=O)cc3C3CC3)C2)c(OCC)c1` [Example 428, (R)-5-cyclopropyl-4-((1-(2,4-diethoxybenzyl)piperidin-3-yl)oxy)-2-fluoro-N-(methylsulfonyl)benzamide, trifluoroacetic acid salt] stands 23.4 nM; under `COC[C@@H](c1ccc(F)c(Cl)c1)N1CCC(COc2cc(F)c(C(=O)NS(C)(=O)=O)cc2C2CC2)CC1` (single isomer, unassigned) [Example 181], 11 nM; under `C[C@H](c1cc(Cl)cc(Cl)c1)N1CCC(C)(COc2cc(F)c(C(=O)NS(C)(=O)=O)cc2C2CC2)CC1` (single isomer, unassigned) [Example 212], 2.7 nM. The same measure, in the same setting: under `CS(=O)(=O)NC(=O)c1cc(C2CC2)c(O[C@@H]2CCCN(C(=O)c3cc(Cl)cc(Cl)c3)C2)cc1F` [Example 221, (R)-5-cyclopropyl-4-((1-(3,5-dichlorobenzoyl)piperidin-3-yl)oxy)-2-fluoro-N-(methylsulfonyl)benzamide] stands 1800 nM. The same measure, in the same setting: next, `C[C@H](c1cc(Cl)cc(Cl)c1)N1CC(COc2cc(F)c(C(=O)NS(C)(=O)=O)cc2C2CC2)C1` [Example 121, (R)-5-Cyclopropyl-4-((1-(1-(3,5-dichlorophenyl)ethyl)azetidin-3-yl)methoxy)-2-fluoro-N-(methylsulfonyl)benzamide]: 30.1 nM; `CS(=O)(=O)NC(=O)c1cc(C2CC2)c(OCC2CCN(Cc3ccc(Cl)c(Cl)c3)CC2)cc1F` [Example 147, 5-Cyclopropyl-4-((1-(3,4-dichlorobenzyl)piperidin-4-yl)methoxy)-2-fluoro-N-(methylsulfonyl)benzamide]: 6.03 nM; `CC1(COc2cc(F)c(C(=O)NS(C)(=O)=O)cc2C2CC2)CCN(C(c2ccccc2)c2ccccc2)CC1` [Example 574, 4-((1-benzhydryl-4-methylpiperidin-4-yl)methoxy)-5-cyclopropyl-2-fluoro-N-(methylsulfonyl)benzamide]: 2.9 nM.

As for `C[C@H]1CC[C@@H](Oc2cc(F)c(C(=O)NS(=O)(=O)C3CC3)cc2C2CC2)CN1Cc1ccc(F)cc1Cl` [Example 326, 4-(((3R,6S)-1-(2-chloro-4-fluorobenzyl)-6-methylpiperidin-3-yl)oxy)-5-cyclopropyl-N-(cyclopropylsulfonyl)-2-fluorobenzamide], the IC50 is 2.9 nM. Still for that read-out and setting: next, `CS(=O)(=O)NC(=O)c1cc(C2CC2)c(OCC2CCN(C(c3ccc(F)cc3)c3ccc(F)cc3)CC2)cc1F` [Example 418, 4-((1-(bis(4-fluorophenyl)methyl)piperidin-4-yl)methoxy)-5-cyclopropyl-2-fluoro-N-(methylsulfonyl)benzamide, trifluoroacetic acid salt]: 3.2 nM. Same read-out and setting: next, `C[C@H](c1cc(Cl)cc(Cl)c1)N1CCC(C#N)(COc2cc(F)c(C(=O)NS(C)(=O)=O)cc2C2CC2)CC1` [Example 597]: 27.6 nM.
